Assay results taken from patent publication US6627634B2, “Bicyclic heterocycles, pharmaceutical compositions containing them, their use, and processes for preparing them” (Boehringer Ingelheim Pharma KG, priority 2000, dated 2003).

Biological target: T1, human EGF-R (Homo sapiens, UniProt P00533)
T1 construct: expressed in transfected cells; host or cells: F/L-HERc cells (murine IL-3-dependent FDC-P1 line transduced with retroviral vector LXSN carrying human EGF-R cDNA; packaging line GP+E86)
T1 sequence (P00533 25-1210): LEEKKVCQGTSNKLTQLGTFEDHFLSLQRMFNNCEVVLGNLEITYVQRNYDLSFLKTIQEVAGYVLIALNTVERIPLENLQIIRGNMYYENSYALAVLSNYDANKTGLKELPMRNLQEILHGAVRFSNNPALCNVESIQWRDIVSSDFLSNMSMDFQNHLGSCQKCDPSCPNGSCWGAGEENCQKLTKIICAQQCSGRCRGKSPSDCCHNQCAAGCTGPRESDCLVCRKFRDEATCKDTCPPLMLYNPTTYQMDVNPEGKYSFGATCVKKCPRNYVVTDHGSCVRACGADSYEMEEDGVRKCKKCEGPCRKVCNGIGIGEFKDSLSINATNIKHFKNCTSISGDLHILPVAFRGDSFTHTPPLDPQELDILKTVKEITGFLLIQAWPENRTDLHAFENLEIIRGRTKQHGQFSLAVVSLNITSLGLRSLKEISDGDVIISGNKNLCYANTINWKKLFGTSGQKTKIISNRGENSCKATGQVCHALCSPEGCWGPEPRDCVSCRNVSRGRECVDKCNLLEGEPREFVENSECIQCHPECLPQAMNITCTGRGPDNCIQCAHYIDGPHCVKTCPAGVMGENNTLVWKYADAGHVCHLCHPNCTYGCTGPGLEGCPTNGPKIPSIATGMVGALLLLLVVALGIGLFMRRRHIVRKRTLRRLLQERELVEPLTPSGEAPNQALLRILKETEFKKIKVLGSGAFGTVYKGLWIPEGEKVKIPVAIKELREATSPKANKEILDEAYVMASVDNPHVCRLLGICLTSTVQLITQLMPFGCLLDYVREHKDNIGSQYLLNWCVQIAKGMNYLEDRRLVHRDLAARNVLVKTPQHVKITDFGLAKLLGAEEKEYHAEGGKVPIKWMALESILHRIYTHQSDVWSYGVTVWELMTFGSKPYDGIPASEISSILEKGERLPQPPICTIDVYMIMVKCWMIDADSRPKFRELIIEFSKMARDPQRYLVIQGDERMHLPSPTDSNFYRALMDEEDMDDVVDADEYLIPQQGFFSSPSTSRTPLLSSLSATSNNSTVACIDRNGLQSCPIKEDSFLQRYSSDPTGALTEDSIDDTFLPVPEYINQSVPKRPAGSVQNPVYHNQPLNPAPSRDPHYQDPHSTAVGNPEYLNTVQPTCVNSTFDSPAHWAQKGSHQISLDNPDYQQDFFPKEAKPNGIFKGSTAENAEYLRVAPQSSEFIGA
Assay: Inhibition of EGF-dependent proliferation of F/L-HERc cells
Format: cell-based
Conditions: F/L-HERc cells (murine IL-3-dependent line expressing human EGF-R), stimulated with EGF 20 ng/ml, 48 hours, Cell Titer 96 AQueous assay
From the text: A cell line of murine origin dependent on interleukin-3-(IL-3) which was genetically modified to express functional human EGF-R was used here. The proliferation of these cells known as F/L-HERc can therefore be stimulated either by murine IL-3 or by EGF (cf. T. von Rüiden et al. in EMBO J. 7, 2749-2756 (1988) and J. H. Pierce et al. in Science 239, 628-631 (1988)).
The starting material used for the F/L-HERc cells was the cell line FDC-P1, the production of which has been described by T. M. Dexter et al., J. Exp. Med. 152 1036-1047 (1980). Alternatively, however, other growth-factor-dependent cells may also be used (cf., e.g., J. H. Pierce et al., Science 239, 628-631 (1988); H. Shibuya et al., Cell 70, 57-67 (1992); and W. S. Alexander et al., EMBO J. 10, 3683-3691 (1991)). For expressing the human EGF-R cDNA (cf. A. Ullrich et al., Nature 309, 418-425 (1984)) recombinant retroviruses were used as described by T. von Rüiden et al., EMBO J. 7, 2749-2756 (1988), except that the retroviral vector LXSN (cf. A. D. Miller et al., BioTechniques 7, 980-990 (1989)) was used for the expression of the EGF-R cDNA and the line GP+E86 (cf. D. Markowitz et al., J. Virol. 62, 1120-1124 (1988)) was used as the packaging cell.
F/L-HERc cells were cultivated in RPMI/1640 medium (BioWhittaker), supplemented with 10% fetal calf serum (FCS, Boehringer Mannheim), 2 mM glutamine (BioWhittaker), standard antibiotics and 20 ng/ml of human EGF (Promega), at 37° C. and 5% CO2. In order to investigate the inhibitory activity of the compounds according to the invention, 1.5×10^4 cells per well were cultivated in triplicate in 96-well dishes in the above medium (200 μl), the cell proliferation being stimulated with either EGF (20 ng/ml) or murine IL-3. The IL-3 used was obtained from culture supernatants of the cell line X63/0 mIL-3 (cf. H. Karasuyama et al., Eur. J. Immunol. 18, 97-104 (1988)). The compounds according to the invention were dissolved in 100% dimethylsulfoxide (DMSO) and added to the cultures in various dilutions, the maximum DMSO concentration being 1%. The cultures were incubated for 48 hours at 37° C.
In order to determine the inhibitory activity of the compounds according to the invention the relative cell number was measured in O.D. units using the Cell Titer 96™ AQueous Non-Radioactive Cell Proliferation Assay (Promega). The relative cell number was calculated as a percentage of the control (F/LHERc cells without inhibitor) and the concentration of active substance which inhibits the proliferation of the cells by 50% (IC50) was derived therefrom.
`O=C(C=CCN1CCN2CC(=O)OCC2C1)Nc1cc2c(Nc3ccc(F)c(Cl)c3)ncnc2cc1OCC1CC1` (stereo not drawn) [4(3), 4-[(3-chloro-4-fluorophenyl)amino]-6-{[4-(3-oxoperhydropyrazino[2,1-c][1,4]oxazin-8-yl)-1-oxo-2-buten-1-yl]amino}-7-cyclopropylmethoxyquinazoline] gave an IC50 of 10 nM.
`O=C(C=CCN1CCN(C2CCOC2=O)CC1)Nc1cc2c(Nc3ccc(F)c(Cl)c3)ncnc2cc1OCC1CC1` (stereo not drawn) [Example 1, 4-[(3-chloro-4-fluorophenyl)amino]-6-({4-[4-(2-oxotetrahydrofuran-3-yl)piperazin-1yl]-1-oxo-2-buten-1-yl}amino)-7-cyclopropylmethoxyquinazoline] gave an IC50 of 0.05 nM.
Compound `O=C(C=CCN1CCN(C2COC(=O)C2)CC1)Nc1cc2c(Nc3ccc(F)c(Cl)c3)ncnc2cc1OCC1CC1` (stereo not drawn) [Example 2, 4-[(3-chloro-4-fluorophenyl)amino]-6-({4-[4-(2-oxotetrahydrofuran-4-yl)piperazin-1-yl]-1-oxo-2-buten-1-yl}amino)-7-cyclopropylmethoxyquinazoline] has an IC50 of 0.6 nM.
`O=C(C=CCN1CCN(CCSC2CCOC2=O)CC1)Nc1cc2c(Nc3ccc(F)c(Cl)c3)ncnc2cc1OCC1CC1` (stereo not drawn) [Example 4, 4-[(3-chloro-4-fluorophenyl)amino]-6-{[4-(4-{2-[(2-oxotetrahydrofuran-3-yl)sulfanyl]ethyl}piperazin-1-yl)-1-oxo-2-buten-1-yl]amino}-7-cyclopropylmethoxyquinazoline] gave an IC50 of 3 nM.

Test system: not given
Assay: not given
Conditions: not given
For `O=C(C=CCN1CCN(C2CCOC2=O)CC1)Nc1cc2c(Nc3ccc(F)c(Cl)c3)ncnc2cc1OCC1CC1` (stereo not drawn) [Example 1, 4-[(3-chloro-4-fluorophenyl)amino]-6-({4-[4-(2-oxotetrahydrofuran-3-yl)piperazin-1yl]-1-oxo-2-buten-1-yl}amino)-7-cyclopropylmethoxyquinazoline], the melting point was 130 to 131 °C.
Work on `O=C(C=CCN1CCN(C(=O)[C@@H]2CCC(=O)O2)CC1)Nc1cc2c(Nc3ccc(F)c(Cl)c3)ncnc2cc1OCC1CC1` [Example 3, (S)-4-[(3-chloro-4-fluorophenyl)amino]-6-[(4-{4-[(5-oxotetrahydrofuran-2-yl)carbonyl]piperazin-1-yl}-1-oxo-2-buten-1-yl)amino]-7-cyclopropylmethoxyquinazoline] yielded a melting point of 155 to 157 °C.
